Laboratory results as given in article PMC8022858, “Discovery of bone morphogenetic protein 7-derived peptide sequences that attenuate the human osteoarthritic chondrocyte phenotype” (Molecular Therapy. Methods & Clinical Development, 2021).

Tested on: human OA knee cartilage explants
Assay: GAG release in medium from cartilage explants
Assay type: cell-based
Settings: n = 5 donors, 24 h, relative to control (Figure 6B)
Description: To determine whether peptide p[63−82] has the potency to alter chondrocyte behavior in cartilage tissue, rather than isolated HACs, cartilage biopsies from OA knees were cultured in the presence of peptide p[63−82], alongside its scrambled version and full-length BMP7.
Figure 6 Peptide p[63−82] activity on OA knee joint tissues Human OA knee joint tissues were cultured for 24 h in the presence of BMP7, peptide p[63−82], or the scrambled version of peptide p[63−82] and compared to control conditions. (A) Cartilage tissues (n = 7 individual donors) were exposed to shown conditions and analyzed for COL2A1, COL10A1, and COX-2 mRNA expression by quantitative real-time PCR (normalized for 28S rRNA expression and relative to control conditions). (B) GAG release in medium from cartilage tissues (n = 5 individual donors) was determined, and data were calculated relative to the control condition. (C) PGE2 levels in culture supernatant from synovium (n = 5 donors). (D) PGE2 levels in culture supernatant from cartilage tissues from (B) (n = 5 donors). (E) PGE2 levels in culture supernatant from IPFP (n = 5 donors). (F) PGE2 levels in culture supernatant from the meniscus. […] PGE2 levels in conditions were calculated relative to controls for each donor. […] Statistical differences (unpaired two-tailed Student’s t test) were calculated to control condition: ∗p < 0.05, ∗∗p < 0.01, and ∗∗∗p < 0.001. […]

## BMP7: full-length recombinant bone morphogenetic protein 7 (R&D Systems), used at 1 nM
  sGAG release from cartilage explants: no inhibitory effect

## H-AAYYSEGESAFPLNSYMNAT-OH [p[63−82]]
  sGAG release from cartilage explants: no inhibitory effect
